In US20220218725A1, “METHODS AND MATERIALS FOR TREATING CANCER” (Mayo Foundation for Medical Education and Research, priority 2019, published 2022):

System: JeKo-1 cells
Assay: Cell viability, Annexin V/PI assay (also IC50 and combination index)
Assay type: cell-based
Description: To assess apoptosis and cellular proliferation, all cell lines were treated with CRM 1 inhibitors (concentration ranging from 0.05-2 μM) and salicylates at concentrations ranging from (0.001-10 mM) for 48 hours before analysis was performed. DMSO was used to substitute the drug in controls.
After 48 hours incubation, cells were washed with Annexin buffer solution and stained with both propidium iodide (PI) and FITC-Annexin V (Life Technologies), and assayed on a BD Accuri flow cytometer (BD Biosciences). Apoptosis results were analyzed with BD CellQuest software. For cell cycle analysis, Jeko-1 cell line was intubated with CRM 1 inhibitors (concentrations ranging from […]) and salicylates (concentration at 3 mM) and Ly-1 cell line was intubated with CRM 1 inhibitors (concentrations ranging from 0.1-2.0 μM) and salicylates (concentration at 0.5-5 mM) for 24 and 48 hours and then fixed with 95% cold ethanol and kept at 4 C° for 24 h and subsequently underwent cell cycle analysis after PI staining and analysis was performed using BD FACS caliber flow cytometer (BD Biosciences) and FlowJo software (Tree Star).
Cell lines were purchased from the cell line repositories ATCC (Manassas, Va.) or DSMZ (Braunschweig, Germany). These included MCL cell lines: JeKo-1, Mino; TCL cell lines: Karpas-299, SR-786; DLBCL cell lines: OCI-Ly1 (LY-1), OCI-Ly3 (LY-3), OCI-Ly19 (LY-19), SU-DHL-6 (DHL-6); MM cell lines: RPMI, U266, OPM2, Xgl, KMS2; ALL cell lines: CRL-1783; non-small cell lung cancer: NCI-H460, A549, HCC827; small cell lung cancer: H1048; sarcoma: Fuji, SW872. Cell lines were cultured according to instruction.
KPT-330 purchased from Selleckchem (cat no: S7252) was dissolved in DMSO while CS (Santa Cruz, Calif.S 2016-36-6), sodium salicylate (Sigma-Aldrich, cat no: S3007), acetyl salicylate (Sigma-Aldrich, cat no: CAS 50-78-2) was diluted in PBS. Ketorolac (Sigma-Aldrich, cat no: 1356665), Bortezomib (Selleckchem, cat no: S1013), gemcitabine (Sigma-Aldrich, cat no: G6423), Leptomycin-B (Sigma-Aldrich, cat no: L2913-2X) and KPT-185 (Selleckchem, cat no: S7125) were dissolved in DMSO. The concentration range of KPT-330 was 0.05-1.0 μM while CS was 1-3 mM were used for ex vivo treatment and incubation time ranged from 24 hours to 72 hours. For the PARP inhibitor assay, olaparib 10 μM (SelleckChem, cat no: AZD2281 Ku-0059436) was used.
The viability assessment for cell lines and primary patients samples were conducted with the Annexin V/PI method.
Jeko-1 and OCI-Ly1 cell lines were used to assess the IC50. Keeping CS at 3 mM, KPT-330 was titrated. Relative IC50 was calculated as described elsewhere (see, e.g., Sebaugh et al., Pharmaceutical statistics 10:128-134 (2011)). The combination index was calculated as described elsewhere (see, e.g., Chou et al., Cancer Res 70:440-446 (2010)).

O=C(c1cc(Cc2n[nH]c(=O)c3ccccc23)ccc1F)N1CCN(C(=O)C2CC2)CC1 [Olaparib, olaparib]
antitumor activity with PARP inhibitor (JeKo-1, olaparib 10 μM, KPT-330 0.5 μM, CS 3 mM, 48 h, AnnexinV/PI): did not have any antitumor activity

CC(C)[C@H](NC(=O)c1ccc2ccccc2n1)C(=O)N[C@@H](CC(=O)O)C(=O)COc1c(F)cccc1F [Q-VD-OPh]
effect of pan-caspase inhibitor on K+CS induced cell death (JeKo-1, 48 hours, KPT-330 0.5 μM and CS 3 mM): rescued cells from K+CS induced cell death

Cc1cn([C@H]2C[C@H](O)[C@@H](CO)O2)c(=O)[nH]c1=O [thymidine]
cell viability after K+CS treatment with exogenous thymidine (JeKo-1 in thymidine-free media, 0.5 μM KPT-330, 3 mM CS, 10 μM thymidine, 48 hours): statistically significant increase in cell viability
